This assay deals with L1210 leukemia ip in BDF1 mice, survival T/C. The assay can be described thus: NCI In Vivo Anticancer Drug Screen. Data for tumor model L1210 Leukemia (intraperitoneal) in B6D2F1 (BDF1) mice. The settings on record: endpoint: mean survival time, higher = longer survival. The essentials:
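Read-out is survival time, reported as the treated-group measurement over the vehicle-control measurement.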

[1] abbreviates: dose: 200.0 mg/kg/injection, schedule: Q04DX003 (ip), vehicle: saline.
Setting [2] is: dose: 400.0 mg/kg/injection, schedule: Q04DX003 (ip), vehicle: saline.
[3] abbreviates: dose: 100.0 mg/kg/injection, schedule: Q01DX001 (ip), vehicle: saline.
Where [4] appears, read: dose: 200.0 mg/kg/injection, schedule: Q01DX001 (ip), vehicle: saline.
[5] abbreviates: dose: 100.0 mg/kg/injection, schedule: Q04DX003 (ip), vehicle: saline.
[6] abbreviates: dose: 400.0 mg/kg/injection, schedule: Q01DX001 (ip), vehicle: saline.
The mark [7] stands for this setting: dose: 100.0 mg/kg/injection, schedule: Q04DX003 (ip), vehicle: Klucel (hydroxypropylcellulose) (HPC).
Where [8] appears, read: dose: 200.0 mg/kg/injection, schedule: Q04DX003 (ip), vehicle: Klucel (hydroxypropylcellulose) (HPC).
Setting [9] is: dose: 400.0 mg/kg/injection, schedule: Q04DX003 (ip), vehicle: Klucel (hydroxypropylcellulose) (HPC).

Structures are written as SMILES. “And” between values parts separate entries of the source, which are not always exact repeats. Identical values can stand only once. Toxic doses and inconclusive results are not listed.

Consider `CS(=O)(=O)OCC(=O)NCCNC(=O)COS(C)(=O)=O`, for which the T/C is 109 % of control (dose: 25.0 mg/kg/injection, schedule: Q01DX Z (ip), vehicle: saline); 113 % of control and 120 % of control (dose: 33.0 mg/kg/injection, schedule: Q01DX Z (ip), vehicle: carboxymethylcellulose (CMC)); 122 % of control (dose: 47.0 mg/kg/injection, schedule: Q01DX Z (ip), vehicle: carboxymethylcellulose (CMC)); 108 % of control and 122 % of control (dose: 50.0 mg/kg/injection, schedule: Q01DX015 (ip), vehicle: saline); 104 % of control (dose: 50.0 mg/kg/injection, schedule: Q01DX Z (ip), vehicle: carboxymethylcellulose (CMC)); 109 % of control (dose: 50.0 mg/kg/injection, schedule: Q01DX Z (ip), vehicle: saline). Also, the T/C reads like this: (dose: 50.0 mg/kg/injection, schedule: Q04DX003 (ip), vehicle: carboxymethylcellulose (CMC)) 111 % of control; (dose: 66.0 mg/kg/injection, schedule: Q01DX Z (ip), vehicle: carboxymethylcellulose (CMC)) 106 % of control; (dose: 75.0 mg/kg/injection, schedule: Q01DX Z (ip), vehicle: carboxymethylcellulose (CMC)) 120 % of control; (dose: 100.0 mg/kg/injection, schedule: Q01DX015 (ip), vehicle: saline) 114 % of control; (dose: 100.0 mg/kg/injection, schedule: Q01DX Z (ip), vehicle: saline) 115 % of control; (dose: 100.0 mg/kg/injection, schedule: Q04DX003 (ip), vehicle: carboxymethylcellulose (CMC)) 110 % of control. For the same compound, the T/C reads like this: (dose: 105.0 mg/kg/injection, schedule: Q01DX Z (ip), vehicle: carboxymethylcellulose (CMC)) 154 % of control; (dose: 115.0 mg/kg/injection, schedule: Q01DX Z (ip), vehicle: carboxymethylcellulose (CMC)) 120 % of control; (dose: 175.0 mg/kg/injection, schedule: Q01DX Z (ip), vehicle: carboxymethylcellulose (CMC)) 118 % of control; (dose: 180.0 mg/kg/injection, schedule: Q01DX009 (ip), vehicle: saline) 168 % of control; (dose: 200.0 mg/kg/injection, schedule: Q04DX003 (ip), vehicle: carboxymethylcellulose (CMC)) 119 % of control; under setting [1], 111 % of control. In addition, the T/C runs as follows: (dose: 225.0 mg/kg/injection, schedule: Q01DX Z (ip), vehicle: carboxymethylcellulose (CMC)) 92 % of control; (dose: 256.0 mg/kg/injection, schedule: Q01DX009 (ip), vehicle: saline) 161 % of control and 169 % of control; (dose: 400.0 mg/kg/injection, schedule: Q01DX015 (ip), vehicle: saline) 162 % of control; (dose: 400.0 mg/kg/injection, schedule: Q01DX Z (ip), vehicle: carboxymethylcellulose (CMC)) 102 % of control; (dose: 400.0 mg/kg/injection, schedule: Q01DX Z (ip), vehicle: saline) 105 % of control; under setting [2], 116 % of control. For the same compound, the T/C (dose: 800.0 mg/kg/injection, schedule: Q04DX003 (ip), vehicle: saline) was 116 % of control.

With `c1ccc2[nH]c(-c3c[nH]c4ccccc34)cc2c1`, the T/C by setting is: (dose: 50.0 mg/kg/injection, schedule: Q01DX001 (ip), vehicle: saline) 106 % of control; under setting [3], 102 % of control; under setting [4], 106 % of control.

As for `O=C(O)c1ccccc1NC(c1ccccc1)c1ccc2cccnc2c1O` (stereo unspecified), the T/C is, setting by setting: under setting [3], 89 % of control; under setting [4], 89 % of control.

`Cc1cnc(Cl)[nH]1` (tested in a mixture with another compound): the T/C (dose: 100.0 mg/kg/injection, schedule: Q04DX002 (ip), vehicle: saline with Tween-80) was 100 % of control; the T/C (dose: 200.0 mg/kg/injection, schedule: Q04DX002 (ip), vehicle: saline with Tween-80) is 113 % of control; the T/C (dose: 400.0 mg/kg/injection, schedule: Q04DX002 (ip), vehicle: saline with Tween-80) was 113 % of control.

In the case of `CC1(C)OC2C(COC(=O)Oc3ccccc3)OC(n3cnc4c(=O)[nH]c(N)nc43)C2O1` (stereo unspecified), the T/C is, setting by setting: (dose: 100.0 mg/kg/injection, schedule: Q01DX005 (ip), vehicle: saline) 106 % of control; (dose: 200.0 mg/kg/injection, schedule: Q01DX005 (ip), vehicle: saline) 97 % of control.

`N#CCCS(=O)(=O)O`: the T/C reads like this: under setting [3], 100 % of control; (dose: 100.0 mg/kg/injection, schedule: Q01DX009 (ip), vehicle: saline) 98 % of control and 122 % of control; (dose: 100.0 mg/kg/injection, schedule: Q04DX002 (ip), vehicle: saline) 97 % of control; under setting [5], 95 % of control; under setting [4], 97 % of control; (dose: 200.0 mg/kg/injection, schedule: Q01DX009 (ip), vehicle: saline) 98 % of control and 108 % of control. In addition, the T/C is, setting by setting: (dose: 200.0 mg/kg/injection, schedule: Q04DX002 (ip), vehicle: saline) 106 % of control and 90 % of control; under setting [1], 103 % of control; under setting [6], 105 % of control; (dose: 400.0 mg/kg/injection, schedule: Q01DX009 (ip), vehicle: saline) 102 % of control and 108 % of control; (dose: 400.0 mg/kg/injection, schedule: Q04DX002 (ip), vehicle: saline) 87 % of control and 92 % of control; under setting [2], 97 % of control.

For `Cc1cccc2ccc3cccc(C)c3c12`, the T/C under setting [3] is 98 % of control, the T/C under setting [4] is 92 % of control and the T/C under setting [6] is 95 % of control.

On to `O=N[O-].O=N[O-].O=N[O-].[Co+3].[NH2-].[NH2-].[NH2-]`, for which the T/C reads like this: under setting [3], 92 % of control; under setting [5], 119 % of control; under setting [4], 90 % of control; under setting [1], 105 % of control; under setting [6], 97 % of control; under setting [2], 97 % of control.

As to `O=C(CCc1ccncc1)Nc1ccccc1`, the T/C reads like this: under setting [7], 100 % of control; under setting [8], 96 % of control; under setting [9], 100 % of control.

As to `BrC1(C2(Br)N(c3ccccc3)CCN2c2ccccc2)N(c2ccccc2)CCN1c1ccccc1`, the T/C reads like this: (dose: 7.5 mg/kg/injection, schedule: Q01DX001 (ip), vehicle: saline) 105 % of control; (dose: 7.5 mg/kg/injection, schedule: Q04DX003 (ip), vehicle: saline) 108 % of control; (dose: 15.0 mg/kg/injection, schedule: Q01DX001 (ip), vehicle: saline) 105 % of control; (dose: 15.0 mg/kg/injection, schedule: Q04DX003 (ip), vehicle: saline) 106 % of control; (dose: 30.0 mg/kg/injection, schedule: Q01DX001 (ip), vehicle: saline) 112 % of control; (dose: 30.0 mg/kg/injection, schedule: Q04DX003 (ip), vehicle: saline) 100 % of control.

For the compound `CC1=C(c2ccccc2)OS(=O)(=O)NC1=O`, the T/C under setting [5] was 100 % of control, the T/C under setting [1] is 97 % of control and the T/C under setting [2] was 101 % of control.

In the case of `COc1ccc(C2=C(Br)C(=O)C(c3ccc(OC)cc3)=C(Br)C2=O)cc1`, the T/C under setting [7] is 94 % of control, the T/C under setting [8] is 96 % of control and the T/C under setting [9] is 98 % of control.

Regarding `Cc1nc(N)[nH]c(=O)c1CCCS`, the T/C by setting is: under setting [3], 104 % of control; under setting [4], 101 % of control; under setting [6], 102 % of control.

As for `Clc1ccccc1N=C1NN(c2c3ccccc3nc3ccccc23)Nc2ccccc21`, the T/C by setting is: (dose: 100.0 mg/kg/injection, schedule: Q04DX003 (ip), vehicle: acetone) 94 % of control; (dose: 200.0 mg/kg/injection, schedule: Q04DX003 (ip), vehicle: acetone) 90 % of control; (dose: 400.0 mg/kg/injection, schedule: Q04DX003 (ip), vehicle: acetone) 87 % of control.

With `Cn1ncc2c(NCc3ccccc3)ncnc21`, the T/C was 97 % of control under setting [3] and 110 % of control under setting [4].

Take `CCCCCCCCC1CCCC2C(C)CCC(C)C12` (stereo unspecified): the T/C is, setting by setting: (dose: 75.0 mg/kg/injection, schedule: Q01DX001 (ip), vehicle: saline) 96 % of control; (dose: 150.0 mg/kg/injection, schedule: Q01DX001 (ip), vehicle: saline) 95 % of control; (dose: 300.0 mg/kg/injection, schedule: Q01DX001 (ip), vehicle: saline) 104 % of control.

In the case of `CC(C)(C)C(=O)C#Cc1ccccc1`, the T/C is 102 % of control (dose: 25.0 mg/kg/injection, schedule: Q04DX003 (ip), vehicle: saline); 96 % of control (dose: 50.0 mg/kg/injection, schedule: Q04DX003 (ip), vehicle: saline); 89 % of control under setting [5].

For the compound `CNC1CCCc2ccccc2C1O` (stereo unspecified), the T/C under setting [3] was 102 % of control.
